Columns and labels:
[1] = oral administration, cited from earlier work
[2] = Pharmacokinetics of inhaled tacrolimus in healthy volunteers, 1 mg BID repeat dose group (Part B); format: in vivo, human
Description: The study is a blinded, randomized, placebo-controlled, multiple dose, dose-escalation study. Part B begins once the first three cohorts of Part A have completed and safety data has been reviewed. Twenty-four (24) healthy adult male and female (women of non-child-bearing potential only) subjects were enrolled. Eight (8) subjects were assigned to each of three dose levels (1.0 mg BID, 0.5 mg BID, or QD dose of either 1.0, 1.5, or 2.0mg, as determined by the SMC at the conclusion of Cohort 2 and after examining the safety and TDM data from that cohort) with six (6) subjects per cohort receiving tacrolimus inhalation and two (2) subjects receiving placebo.
Screening of subjects occurred within 28 days prior to the first dose administered. Study subjects were randomized to receive either a placebo or tacrolimus inhalation powder by inhalation. The subject assignment were blinded to the investigator, study coordinators and study subjects. Subjects were automatically replaced if they discontinue the study prior to dosing. On Day 1, subjects in each cohort begins receiving tacrolimus or placebo administered twice a day (every 12 hours) for Cohorts 1 and 2, and tacrolimus or placebo administered once per day (every 24 hours) for Cohort 3,through the Plastiape® inhaler. Blood samples and safety measurements were performed over 1 week as scheduled. […]
PK parameters for plasma tacrolimus are calculated as follows, as appropriate: AUC0-24: The area under the concentration-time curve, from time 0 to the 24-hour time point, as calculated by the linear trapezoidal method. If the 24-hour plasma concentration is missing, below the limit of quantification or not reportable, then this parameter will not be calculated. AUC0-t: The area under the concentration-time curve, from time 0 to the last observed non-zero concentration, as calculated by the linear trapezoidal method. […] AUC0-inf is calculated as the sum of AUC0-t plus the ratio of the last measurable plasma concentration to the elimination rate constant. […] CL/F Apparent total body clearance after oral administration, calculated as Dose/AUC0-inf. […] Kel: Apparent first-order terminal elimination rate constant calculated from a semi-log plot of the plasma concentration versus time curve. The parameter will be calculated by linear least-squares regression analysis using the maximum number of points in the terminal log-linear phase (e.g., three or more non-zero plasma concentrations). t1/2: Apparent first-order terminal elimination half-life are calculated as 0.693/Kel. Vz/F: Apparent volume of distribution during the terminal elimination phase after oral administration, calculated as […]. […]

[3] = cited from earlier work
[4] = inhalation 1 mg BID, healthy volunteers

C=CC[C@@H]1/C=C(\C)C[C@H](C)C[C@H](OC)[C@H]2O[C@@](O)(C(=O)C(=O)N3CCCC[C@H]3C(=O)O[C@H](/C(C)=C/[C@@H]3CC[C@@H](O)[C@H](OC)C3)[C@H](C)[C@@H](O)CC1=O)[C@H](C)C[C@@H]2OC [tacrolimus, (1R,9S,12S,13R,14S,17R,18E,21S,23S,24R,25S,27R)-1,14-dihydroxy-12-[(E)-1-[(1R,3R,4R)-4-hydroxy-3-methoxycyclohexyl]prop-1-en-2-yl]-23 ,25-dimethoxy-13,19,21,27-tetramethyl-17-prop-2-enyl-11,28-dioxa-4-azatricyclo [22.3.1.0^4.8]octacos-18-ene-2,3,10,16-tetrone]
absorption ([1]; Prograf label): < 25% | variability of absorption (%CV range) ([1]; depending on the study): 28-58% | tacrolimus plasma exposure, actual arithmetic mean ([2]; inhalation 1 mg BID repeat dose, healthy volunteers, preliminary): 45 ng/mL | actual trough values at 12 hours post dose compared with simulated exposure ([2]; inhalation 1 mg BID, Day 1 and Day 7): closer to the upper 90% confidence interval for simulated exposure | Cmin (trough) concentrations at 12 h compared with oral PK model [2, 4]: slightly higher than predicted | observed Cmax compared with oral PK model [2, 4]: lower than predicted | solubility in water [3]: practically insoluble in water

From US20220362222A1, “ONCE DAILY FORMULATIONS OF TACROLIMUS” (TFF Pharmaceuticals, Inc., priority 2021, published 2022)
